The values that follow are results of earlier work, collected in patent US20110045089A1, “VITAMIN K3 DERIVATIVE / NSA FORMULATION” (priority 2009, published 2011).

Bounds are passed on as bounds.

The conditions of data set [1]: for Total vitamin retention %: 1 × 2 × 3 × 4 (product of the four stress factors); for Vitamin retention, stress factor 1: vitamin premix without choline chloride: 2 months; for Vitamin retention, stress factor 4: petfood storage time: 8 months; for Vitamin retention, stress factor 2: extrusion temperature: 105° C.; for Vitamin retention, stress factor 3: drying/enrobing: 180° C.

The conditions of data set [2]: 80° C., high humidity.
The conditions of data set [3]: premix containing choline chloride, after 6 months of storage (FIG. 2).

Regarding `CC1(S(=O)(=O)O)CC(=O)c2ccccc2C1=O.NC(=O)c1cccnc1` (stereo not shown) [MNB, Nicotinamide Menadione Bisulfite], in data set [1], the “Total vitamin retention %” value is reported as 25%; the “Vitamin retention, stress factor 1: vitamin premix without choline chloride” value is 100%; the “Vitamin retention, stress factor 4: petfood storage time” value is given as 47%; the “Vitamin retention, stress factor 2: extrusion temperature” value is listed as 70%. The “Vitamin retention, stress factor 3: drying/enrobing” value (shortened to “Vitamin retention … drying/enrobing”) in data set [1] is reported as 76%. Moreover, the “Fraction decomposed during pelleting process” value in data set [2] is on record as 50%. Besides, in data set [3], the “Original amount of K3 remaining in premix” value is reported as no more than 70%.

In the case of `CC1(S(=O)(=O)O)CC(=O)c2ccccc2C1=O.Cc1cc(C)nc(O)n1` (stereo not shown) [MPB, 2-hydroxy-4,6-dimethyl-pyrimidinium Menadione Bisulfite], in data set [1], the “Total vitamin retention %” value is on record as 19%; the “Vitamin retention, stress factor 1: vitamin premix without choline chloride” value was 100%; the “Vitamin retention, stress factor 4: petfood storage time” value was 42%; the “Vitamin retention, stress factor 2: extrusion temperature” value is 65%. Moreover, the “Vitamin retention … drying/enrobing” value in data set [1] was 70%.

Consider `CC1(S(=O)(=O)[O-])CC(=O)c2ccccc2C1=O.[Na+]` (stereo not shown) [MSB, Menadione Sodium Bisulphite], for which, in data set [1], the “Total vitamin retention %” value is 5%; the “Vitamin retention, stress factor 1: vitamin premix without choline chloride” value is reported as 98%; the “Vitamin retention, stress factor 4: petfood storage time” value is given as 27%; the “Vitamin retention, stress factor 2: extrusion temperature” value was 50%. Further, the “Vitamin retention … drying/enrobing” value in data set [1] is 37%.

Take `NC(=O)c1cccnc1` [Niacinamide, nicotinamide]: in data set [1], the “Total vitamin retention %” value is 58%; the “Vitamin retention, stress factor 1: vitamin premix without choline chloride” value is on record as 100%; the “Vitamin retention, stress factor 4: petfood storage time” value is reported as 79%; the “Vitamin retention, stress factor 2: extrusion temperature” value is on record as 87%. For the same compound, in data set [1], the “Vitamin retention … drying/enrobing” value was 84%.
